Reference: PubChem BioAssay AID743059 (The Scripps Research Institute Molecular Screening Center, 2013)
The source made the active and inactive calls.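 Rule for the calls: active = EC50 at or below 10 µM; inactive = EC50 above 10 µM.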

Molecular target: Nuclear hormone receptor DAF-12 (Heterodera glycines)
Experiment: H. glycines DAF-12 receptor agonist potency, dose response, cell-based, luminescence, HEK293 (AID 743059);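 note: agonist potency for compounds that raise hgDAF-12 reporter luminescence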
Details: HEK293 hgDAF-12 reporter, luciferase luminescence

| SMILES | EC50 |
| --- | --- |
| CCOC(=O)c1sc2nc3c(cc2c1N)COC(C)(CC)C3 (centres undefined) | > 67.5 µM (inactive) |
| CCOC(=O)c1csc(-c2sccc2Br)n1 | > 67.6 µM (inactive) |
| CCN(CC)S(=O)(=O)c1cc(C(=O)OCC(=O)Nc2ccc(-c3nc4ccc(C)cc4s3)cc2)ccc1F | > 67.5 µM (inactive) |
| Cc1cc2nc(-c3cccnc3SCC(=O)NCc3ccco3)[nH]c2cc1C | > 67.6 µM (inactive) |
| CCOC(=O)c1cn[nH]c1NC(=S)Nc1ccccc1 | > 67.6 µM (inactive) |
| CCNC(=S)NNC(=O)c1cc(-c2ccc(OCC)cc2)nc2ccccc12 | > 67.5 µM (inactive) |
| O=c1c2ccccc2nnn1CCc1ccccc1 | > 67.4 µM (inactive) |
| Nc1c(OS(=O)(=O)c2ccccc2)cccc1OS(=O)(=O)c1ccccc1 | > 67.5 µM (inactive) |
| COC1=C/C(=C/c2c(N)n3nc(-c4ccc(C)cc4)sc3nc2=O)C=CC1=O | > 67.5 µM (inactive) |
| COc1cccc(-c2nc(-c3ccc(Br)o3)no2)c1 | > 67.5 µM (inactive) |
| CN(C)c1cccc(-c2cnc(N3CCC(C(N)=O)CC3)s2)c1 | > 67.5 µM (inactive) |
| Cn1c(SCc2ccccc2F)nc2cccnc21 | > 67.5 µM (inactive) |
| COc1ccccc1-c1noc(-c2cccs2)n1 | > 67.5 µM (inactive) |
| CC(=Nc1ccc(Cl)cc1N)c1c(O)cc(C)oc1=O | > 67.6 µM (inactive) |
| O=C(N/N=C/c1cccs1)c1n[nH]c2c1CCC2 | > 67.5 µM (inactive) |
| O=C(Nc1ccn(Cc2ccccc2)n1)c1n[nH]c([N+](=O)[O-])c1Cl | > 67.5 µM (inactive) |
| O=C(Nc1ccc(Cl)cn1)c1cc2ccccc2o1 | > 67.5 µM (inactive) |
| c1ccc(Nc2nc(-c3cccnc3)cs2)nc1 | > 67.6 µM (inactive) |
| Clc1ccc(-c2cn3cc(Cl)ccc3n2)cc1 | > 67.6 µM (inactive) |
| Cc1nnc(SCC(=O)Nc2nsc(-c3ccc(C(C)(C)C)cc3)n2)s1 | > 67.5 µM (inactive) |
| Fc1ccc(-n2nnc(-c3cccnc3Cl)n2)cc1 | > 67.5 µM (inactive) |
| CC/C(=N\NC(=O)c1ccoc1C)c1ccc(C)o1 | > 67.5 µM (inactive) |

| SMILES | EC50 |
| --- | --- |
| O=C(Nc1ccccn1)c1csc2c1CCCC2 | > 67.5 µM (inactive) |
| CC(C)C[C@H](NC(=O)OCC1c2ccccc2-c2ccccc21)C(=O)O | > 67.5 µM (inactive) |
| Cc1ccc(/C=N/NC(=O)c2ccoc2C)s1 | > 67.6 µM (inactive) |
| N#C/C(=N\Nc1ccc(Cl)cc1)C(=N)N1CCCCCC1 | > 67.5 µM (inactive) |
| c1ccc(CN=C2Nc3ccccc3CS2)nc1 | > 67.5 µM (inactive) |
| Cc1ccnc(NC(=O)C2CCN(S(=O)(=O)c3c(C)c(C)cc(C)c3C)CC2)c1 | > 67.6 µM (inactive) |
| Cc1ccc(N=Nc2ccc(O)cc2)c(Br)c1 | > 67.5 µM (inactive) |
| Cc1ccc(N/C=C(/C#N)c2ccsc2)cc1C | > 67.5 µM (inactive) |
| c1ccc(Nc2nc(-c3ccccc3)ns2)cc1 | > 67.6 µM (inactive) |
| C#CCNC(=O)C[C@H]1C[C@@]2(C(=O)OC)C(=C[C@H](C(C)C)O[C@@H]2C2CC2)N(CCCCCCCC)C1=O | > 67.5 µM (inactive) |
| Cc1ccc2nc(-c3ccccn3)oc2c1 | > 67.6 µM (inactive) |
| Cc1ccc(NC(=S)N/C(=N/S(=O)(=O)c2ccccc2)c2ccccc2)cc1 | > 67.5 µM (inactive) |
| Cc1ccc(SCCSc2ncccn2)cc1 | > 67.5 µM (inactive) |
| ON=C(CCc1ccccc1)c1ccccc1 | > 67.5 µM (inactive) |
| Cc1nc2sc(-c3ccccc3)nn2c(=O)c1Br | > 67.5 µM (inactive) |
| Cc1c(C(=O)OC2CCC(C)CC2)[nH]c2c1C(=O)CCC2 (centres undefined) | > 67.5 µM (inactive) |
| C(=C\n1nnc2ccccc21)/c1ccccn1 | > 67.5 µM (inactive) |
| OCCN1CCN(c2cnc(-c3ccsc3)cn2)CC1 | > 67.5 µM (inactive) |
| O=[N+]([O-])c1cccnc1NCCNc1ncc(C(F)(F)F)cc1Cl | > 67.5 µM (inactive) |
| Cc1ccc(-c2csc(NC(=O)/C=C/c3ccco3)c2C(=O)O)cc1 | > 67.6 µM (inactive) |
| O=C1/C(=C\c2cccs2)Sc2ccc3ccccc3c21 | > 67.5 µM (inactive) |
| CCc1sc(C(=O)Nc2ncccc2O)cc1C | inactive |

| SMILES | EC50 |
| --- | --- |
| CCN(CC)S(=O)(=O)c1ccc(C(=O)OCC(=O)Nc2ccc(-c3nc4ccc(C)cc4s3)cc2)cc1 | > 67.5 µM (inactive) |
| Clc1ccc(Nc2ccc3ccccc3n2)cc1 | > 67.5 µM (inactive) |
| Clc1ccccc1Nc1nnc(-c2ccncc2)s1 | > 67.5 µM (inactive) |
| COc1cccc(/C=C/c2ccc3cccc(O)c3n2)c1 | > 67.5 µM (inactive) |
| O=c1[nH]cnc2cc(-c3ccccc3)sc12 | > 67.5 µM (inactive) |
| S=C(c1ccc(-c2ccc(Cl)cc2)o1)N1CCCCC1 | > 67.5 µM (inactive) |
| CCCn1c(=NC(=O)c2ccco2)c(C(=O)OCC)cc2c(=O)n3ccccc3nc21 | > 67.5 µM (inactive) |
| COCC1CCN(Cc2nc(-c3cccs3)no2)C1 (centres undefined) | > 67.5 µM (inactive) |
| C/C(=N\NC(=O)OC(C)(C)C)c1ccc[nH]1 | > 67.6 µM (inactive) |
| Cc1cc(C(=O)NC2=NCCS2)cs1 | > 67.5 µM (inactive) |
| N=C1c2ccccc2CN1CC(=O)c1ccccc1 | > 67.6 µM (inactive) |
| COC(=O)C1C(=O)c2c([nH]c(C(=O)OC3CCCCC3)c2C)CC1C (centres undefined) | > 67.5 µM (inactive) |
| CCc1ccc(C2CC(c3ccco3)=NN2S(C)(=O)=O)cc1 (centres undefined) | > 67.5 µM (inactive) |
| C=CCN1C=CC(=C/C=C(/C#N)C(=O)OCC)C=C1 | > 67.5 µM (inactive) |
| COc1ccc2[nH]c(C(=O)Nc3cccc(C)n3)cc2c1 | > 67.5 µM (inactive) |
| CCOC(=O)CSc1nc(-c2ccncc2)ccc1C#N | > 67.5 µM (inactive) |
| Cc1ccc(-c2nc(Nc3ccccc3)n[nH]2)cc1 | > 67.5 µM (inactive) |
| Cc1ccc(Nc2ncccc2C(N)=O)cc1 | > 67.4 µM (inactive) |
| Cc1ccc(/C(N)=N/OC(=O)c2ccco2)cc1 | > 67.5 µM (inactive) |
| c1cncc(-c2noc(-c3ccc4ccccc4c3)n2)c1 | > 67.5 µM (inactive) |
| Cc1ccsc1/C=N/NC(=O)c1sccc1C | > 67.5 µM (inactive) |
| CN(C)CCNc1ncnc2c1ncn2[C@H]1CN(Cc2cccnc2)C[C@@H](CO)O1 | > 67.5 µM (inactive) |

| SMILES | EC50 |
| --- | --- |
| Cc1ccc(SCCN2CCC(C)CCC2=O)cc1 (centres undefined) | > 67.5 µM (inactive) |
| CC1CCc2c(sc(NC(=O)C3=COCCO3)c2C(N)=O)C1 (centres undefined) | > 67.5 µM (inactive) |
| CN(C)c1ccc2c(=O)c3ccccc3oc2n1 | > 67.6 µM (inactive) |
| Cc1c(C(=O)Nc2ccccc2)csc1-c1ccccc1 | > 67.5 µM (inactive) |
| Oc1ccc(N=Nc2ccc3ccccc3c2)cc1 | > 67.5 µM (inactive) |
| CCc1ccc2oc(-c3cccc(N)c3)nc2c1 | > 67.6 µM (inactive) |
| OC(c1ccccc1)c1nc(-c2cnc3ccccc3c2)cs1 (centres undefined) | > 67.6 µM (inactive) |
| CN1C(=O)/C(=C/C=C2\SCCN2C)N(C)C1=S | > 67.6 µM (inactive) |
| O=c1c2cc(-c3ccccc3)sc2nc2n1CCC2 | > 67.5 µM (inactive) |
| Cc1cc2ncc(-c3ccccc3)nc2cc1C | > 67.5 µM (inactive) |
| Cc1nc(N)sc1N=Nc1ccc(Br)cc1 | > 67.5 µM (inactive) |
| CCOC(=O)c1cnc(SCc2ccccc2)nc1N | > 67.5 µM (inactive) |
| Cc1ccc(NC(=S)NC(=O)C2CCCC2)c(Br)c1 | > 67.5 µM (inactive) |
| Cc1ccnc(NC(=O)CCNS(=O)(=O)c2ccc(C)c(C)c2)c1 | > 67.6 µM (inactive) |
| Cc1cc(C)n2c(NC3CCCC3)c(-c3cc4ccccc4o3)nc2n1 | > 67.5 µM (inactive) |
| O=C(NC1CCC1)c1ccc(C#CC2CC2)cn1 | > 67.5 µM (inactive) |
| Cc1ccc(-n2ncc3ccccc3c2=O)cc1Cl | > 67.6 µM (inactive) |
| N#Cc1c(Br)n(C2OC(CO)C(O)C2O)c2ncnc(N)c12 (centres undefined) | > 67.5 µM (inactive) |
| CCOC(=O)c1c(C)[nH]c(N=Nc2cccc(OC)c2)c1C | > 67.5 µM (inactive) |
| Cc1ccc(-c2onc3ccc(C(=O)O)cc23)cc1 | > 67.6 µM (inactive) |
| Cc1ccnc(NC(=O)/C=C/c2cccs2)c1 | > 67.6 µM (inactive) |
| Cc1ccc(OCc2ccc(Br)cc2)c([N+](=O)[O-])n1 | > 67.5 µM (inactive) |

| SMILES | EC50 |
| --- | --- |
| Clc1ccc(Nc2nc(-c3cccs3)cs2)nc1 | > 67.5 µM (inactive) |
| COc1ccccc1/C=N\N=C(\N)c1ccccn1 | > 67.6 µM (inactive) |
| Nc1nc(Nc2ccc(Cl)cc2)nc2ccccc12 | > 67.5 µM (inactive) |
| CC(C)Oc1cc(O)c2c(=O)c(-c3ccc(O)cc3)coc2c1 | > 67.6 µM (inactive) |
| Cc1cc(O)ccc1Nc1cc(-c2cccc(N(C)C)c2)ncn1 | > 67.5 µM (inactive) |
| Cc1ccc2oc(-c3cccc(N)c3)nc2c1 | > 67.6 µM (inactive) |
| COc1ccc(/C=C2\SC(=O)N(CCNC(=O)C3CC4C=CC3C4)C2=O)cc1 (centres undefined) | > 67.5 µM (inactive) |
| CSc1ccc(/C=N/Nc2ccc(Cl)c(C(=O)O)c2)cc1 | > 67.5 µM (inactive) |
| COc1cccc(-c2nc3ccccc3s2)c1 | > 67.5 µM (inactive) |
| NC(=Nc1ccccc1)NC(=O)c1nc(Cl)c(N)nc1N | > 67.5 µM (inactive) |
| Cc1c(C(=O)Nc2nccs2)oc2ccccc12 | > 67.6 µM (inactive) |
| N/C(=N\OC(=O)c1cc(Br)ccc1Cl)c1ccccn1 | > 67.5 µM (inactive) |
| O=C(Nc1ccccc1O)c1ccc(NS(=O)(=O)c2cccc3cccnc23)cc1 | 3.3 µM |
| Cc1ccc2nc(C)/c(=N\O)c(C)nc2c1 | > 67.6 µM (inactive) |
| CCCCCc1nnc(NC(=O)C2=COCCO2)s1 | > 67.6 µM (inactive) |
| Cc1cccc(N=Nc2cnc(N)s2)c1 | > 67.6 µM (inactive) |
| CC(=Nc1ccccc1)c1sc2ccccc2c1O | > 67.6 µM (inactive) |
| Cc1cc(C)nc(-n2nc(C)c(Sc3ccc(F)cc3)c2N)n1 | > 67.5 µM (inactive) |
| CN1CCN(/C=N/c2sc3c(c2C#N)CCCCC3)CC1 | > 67.5 µM (inactive) |
| COC1=C/C(=C/c2c(O)c(C#N)c3ccccn23)C=CC1=O | > 67.5 µM (inactive) |
| Cn1c(O)c(N=NC(=O)c2ccco2)c2ccccc21 | > 67.5 µM (inactive) |
